Results from US20230278972A1, “SUBSTITUTED HALOALKYL SULFONANILIDE HERBICIDES” (FMC Corporation, priority 2020, published 2023).

Experiments:
Type in all cases: in vivo
[1] = system: Foxtail, Giant (giant foxtail, Setaria faberi); experiment: Test A1 preemergence, Foxtail, Giant
How it was run: (§1)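 Pre: seeds in loam/sand blend, directed soil spray. Post: potted plants, same soil, 2–10 cm, 1–2 leaf stage. Chemicals in non-phytotoxic solvent + surfactant for both.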

[2] = system: Oat, Wild (wild oat, Avena fatua); experiment: Test A1 preemergence, Oat, Wild
How it was run: as §1

[3] = system: ragweed (common ragweed, Ambrosia artemisiifolia); experiment: Test A1 preemergence, ragweed
How it was run: as §1

[4] = system: Foxtail, Giant (giant foxtail, Setaria faberi); experiment: Test A1 postemergence, Foxtail, Giant; details: Postemergence
How it was run: (§2)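 Test compounds were formulated in a non-phytotoxic solvent mixture containing a surfactant. For preemergence, seeds sown in a loam soil–sand blend received a directed soil spray. For postemergence, potted plants in the same soil, 2 to 10 cm tall at the one- to two-leaf stage, were sprayed.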

kochia (Bassia scoparia) = experiment: Test A1 postemergence, kochia; details: Postemergence
How it was run: as §2

[5] = system: Pigweed, Palmer (palmer amaranth, palmer pigweed, Amaranthus palmeri); experiment: Test A1 postemergence, Pigweed, Palmer; details: Postemergence
How it was run: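 Herbicidal response was scored on plants treated either preemergence, by directed spray onto soil of a loam–sand blend after sowing, or postemergence on potted plants at the one- to two-leaf stage, 2–10 cm high. Test chemicals were carried in a non-phytotoxic solvent mix with surfactant.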

[6] = system: wheat (Triticum aestivum); experiment: Test A1 postemergence, wheat; details: Postemergence
How it was run: as §2

[7] = system: barnyardgrass (Echinochloa crus-galli); experiment: Test B1 flooded paddy test, barnyardgrass; details: 250 g ai/ha, Flood, applied to paddy water, 2-leaf stage, visually evaluated after 10 to 14 days
Text: (§3) A dash (-) response means no test result.

rice (Oryza sativa) = experiment: Test B1 flooded paddy test, rice; details: 250 g ai/ha, Flood, applied to paddy water, 2-leaf stage, visually evaluated after 10 to 14 days
Text: as §3

[8] = 31 g ai/ha, 0 to 100 scale (0 no effect, 100 complete control)
[9] = 125 g ai/ha, 0 to 100 scale, 0 no effect, 100 complete control
[10] = 31 g ai/ha, 0 to 100 scale (0 no effect, 100 complete control), 10 days

Structure (SMILES) | Plant response rating, Foxtail, Giant [1, 8] | Plant response rating, Foxtail, Giant [1, 9] | Plant response rating, Oat, Wild [2, 8] | Plant response rating, Oat, Wild [2, 9] | Plant response rating, Ragweed [3, 8] | Plant response rating, Ragweed [3, 9] | Plant response rating, Foxtail, Giant [4, 10] | Plant response rating, Foxtail, Giant ([4]; 125 g ai/ha, 0 to 100 scale) | Plant response rating, Kochia (kochia (Bassia scoparia); [10]) | Plant response rating, Kochia (kochia (Bassia scoparia); 125 g ai/ha, 0 to 100 scale) | Plant response rating, Pigweed, Palmer [5, 10] | Plant response rating, Pigweed, Palmer ([5]; 125 g ai/ha, 0 to 100 scale) | Plant response rating, Wheat [6, 10] | Plant response rating, Wheat ([6]; 125 g ai/ha, 0 to 100 scale) | Plant response rating, Barnyardgrass (0 to 100 scale, 0 is no effect, 100 is complete control) [7] | Plant response rating, Rice (0 to 100 scale, 0 is no effect, 100 is complete control) (rice (Oryza sativa))
CCc1cc(C)c(NS(=O)(=O)C(F)(F)F)cc1C1=NOC2CCCC12 (stereo not shown) [Compound 305] | 20 | 90 | 20 | 60 | 0 | 20 | 20 | 60 | 0 | 10 | 0 | 40 | 50 | 60 | 90 | 0
Cc1cc(C2CC2)c(C2=NOC3CCCC23)cc1NS(=O)(=O)C(F)(F)F (stereo not shown) [Compound 307] | 50 | 100 | 0 | 40 | 0 | 60 | 20 | 40 | 0 | 30 | 0 | 40 | 30 | 40 | 60 | 0
Cc1cc(C)c(N(COC(=O)C(C)C)S(=O)(=O)C(F)(F)F)cc1C1=NOC2CCCC12 (stereo not shown) [Compound 308] | 50 | 80 | 0 | 50 | 0 | 50 | 0 | 40 | 20 | 70 | 0 | 0 | 10 | 50 | 95 | 10
Cc1cc(Br)c(NS(=O)(=O)C(F)(F)F)cc1C1=NOC2(CCCC2)C1 [Compound 309] | 60 | 90 | 20 | 60 | 0 | 20 | 20 | 60 | 0 | 60 | 0 | 20 | 0 | 40 | 0 | 0
Cc1cc(F)c(C2=NOC3CCCC23)cc1NS(=O)(=O)C(F)(F)F (stereo not shown) [Compound 310] | 0 | 20 | 0 | 0 | 0 | 20 | 0 | 0 | 0 | 20 | 0 | 0 | 0 | 20 | 0 | 0
COc1cc(C)c(NS(=O)(=O)C(F)(F)F)cc1C1=NOC2CCCC12 (stereo not shown) [Compound 312] | 20 | 30 | 0 | 0 | 0 | 30 | 0 | 10 | 0 | 0 | 0 | 0 | 0 | 0 | 0 | 0
COC(=O)OCN(c1cc(C2=NOC3CCCC23)c(C)cc1C)S(=O)(=O)C(F)(F)F (stereo not shown) [Compound 315] | 70 | 90 | 0 | 20 | 20 | 60 | 0 | 20 | 50 | 80 | 30 | 50 | 30 | 70 | 98 | 35
